From PubChem BioAssay (NCI)
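Five compound concentrations were applied to cells in 96-well plates for 48 hours; endpoints were derived by simple linear interpolation of the resulting dose-response curve. GI50 is the concentration that inhibits growth by half. TGI denotes the concentration required for complete inhibition of growth.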

Columns and labels:
Assay in all cases: NCI tumour cell line growth inhibition, 48 h
SR leukemia = tested on: SR leukemia
HL-60(TB) leukemia = tested on: HL-60(TB) leukemia
PC-3 prostate = tested on: PC-3 prostate
NCI-H522 lung = tested on: NCI-H522 lung
UO-31 renal = tested on: UO-31 renal
A498 renal = tested on: A498 renal
OVCAR-8 ovarian = tested on: OVCAR-8 ovarian
RPMI-8226 leukemia = tested on: RPMI-8226 leukemia
TK-10 renal = tested on: TK-10 renal
SK-MEL-5 melanoma = tested on: SK-MEL-5 melanoma
COLO 205 colon = tested on: COLO 205 colon
MOLT-4 leukemia = tested on: MOLT-4 leukemia
U251 CNS = tested on: U251 CNS
BT-549 breast = tested on: BT-549 breast
T-47D breast = tested on: T-47D breast
NCI/ADR-RES ovarian = tested on: NCI/ADR-RES ovarian
M14 melanoma = tested on: M14 melanoma
RXF 393 renal = tested on: RXF 393 renal
SN12C renal = tested on: SN12C renal
HT29 colon = tested on: HT29 colon
SK-OV-3 ovarian = tested on: SK-OV-3 ovarian
UACC-62 melanoma = tested on: UACC-62 melanoma
SK-MEL-2 melanoma = tested on: SK-MEL-2 melanoma
SK-MEL-28 melanoma = tested on: SK-MEL-28 melanoma
CAKI-1 renal = tested on: CAKI-1 renal
SNB-19 CNS = tested on: SNB-19 CNS
EKVX NSCLC = tested on: EKVX NSCLC
CCRF-CEM leukemia = tested on: CCRF-CEM leukemia
IGROV1 ovarian = tested on: IGROV1 ovarian
SF-295 CNS = tested on: SF-295 CNS
SW-620 colon = tested on: SW-620 colon
HOP-92 NSCLC = tested on: HOP-92 NSCLC
HOP-62 NSCLC = tested on: HOP-62 NSCLC
A549 NSCLC = tested on: A549 NSCLC
DU-145 prostate = tested on: DU-145 prostate
786-0 renal = tested on: 786-0 renal
ACHN renal = tested on: ACHN renal
NCI-H23 lung = tested on: NCI-H23 lung
KM12 colon = tested on: KM12 colon
UACC-257 melanoma = tested on: UACC-257 melanoma
MDA-MB-231 breast = tested on: MDA-MB-231 breast
HCC-2998 colon = tested on: HCC-2998 colon
MALME-3M melanoma = tested on: MALME-3M melanoma
HCT-116 colon = tested on: HCT-116 colon
SF-268 CNS = tested on: SF-268 CNS
NCI-H226 lung = tested on: NCI-H226 lung
OVCAR-5 ovarian = tested on: OVCAR-5 ovarian
HS 578T breast = tested on: HS 578T breast
MDA-MB-435 = tested on: MDA-MB-435
K-562 leukemia = tested on: K-562 leukemia
HCT-15 colon = tested on: HCT-15 colon
NCI-H460 lung = tested on: NCI-H460 lung
MCF7 breast = tested on: MCF7 breast
OVCAR-3 ovarian = tested on: OVCAR-3 ovarian
LOX IMVI melanoma = tested on: LOX IMVI melanoma

C[C@@H]1CC[C@H]2[C@@H](C)C(OC/C=C/COC3O[C@@H]4O[C@@]5(C)CC[C@H]6[C@H](C)CC[C@@H]([C@H]3C)[C@@]46OO5)O[C@@H]3O[C@@]4(C)CC[C@@H]1[C@]32OO4 (stereo partly specified) was tested, and the GI50 (SR leukemia) was < 10 nM, the TGI (SR leukemia) was 3850 nM and the GI50 (HL-60(TB) leukemia) was < 10 nM. The GI50 (PC-3 prostate) was < 10 nM, the TGI (PC-3 prostate) was > 100000 nM and the GI50 (NCI-H522 lung) was 89.8 nM. The TGI (NCI-H522 lung) was > 100000 nM, the GI50 (UO-31 renal) was 152 nM and the TGI (UO-31 renal) was > 92900 nM. The GI50 (A498 renal) was 15700 nM, the TGI (A498 renal) was > 100000 nM and the GI50 (OVCAR-8 ovarian) was < 10 nM. For the same compound, the TGI (OVCAR-8 ovarian) was > 38000 nM, the GI50 (RPMI-8226 leukemia) was < 10 nM and the TGI (RPMI-8226 leukemia) was 5770 nM. The GI50 (TK-10 renal) was < 10.4 nM, the TGI (TK-10 renal) was 24800 nM and the GI50 (SK-MEL-5 melanoma) was 49.1 nM. For the same compound, the TGI (SK-MEL-5 melanoma) was 18600 nM, the GI50 (COLO 205 colon) was < 10 nM and the TGI (COLO 205 colon) was 228 nM. For the same compound, the GI50 (MOLT-4 leukemia) was < 10 nM, the TGI (MOLT-4 leukemia) was > 47200 nM and the GI50 (U251 CNS) was < 10 nM. For the same compound, the TGI (U251 CNS) was > 20900 nM, the GI50 (BT-549 breast) was 30.4 nM and the TGI (BT-549 breast) was > 100000 nM. For the same compound, the GI50 (T-47D breast) was < 10 nM, the TGI (T-47D breast) was > 100000 nM and the GI50 (NCI/ADR-RES ovarian) was 88.7 nM. The TGI (NCI/ADR-RES ovarian) was 14800 nM, the GI50 (M14 melanoma) was 26.5 nM and the TGI (M14 melanoma) was 19100 nM. For the same compound, the GI50 (RXF 393 renal) was < 10 nM, the TGI (RXF 393 renal) was 28200 nM and the GI50 (SN12C renal) was < 14.7 nM. The TGI (SN12C renal) was 2060 nM, the GI50 (HT29 colon) was < 10 nM and the TGI (HT29 colon) was > 100000 nM. The GI50 (SK-OV-3 ovarian) was 19500 nM, the TGI (SK-OV-3 ovarian) was > 100000 nM and the GI50 (UACC-62 melanoma) was 36.3 nM. For the same compound, the TGI (UACC-62 melanoma) was > 100000 nM, the GI50 (SK-MEL-2 melanoma) was 773 nM and the TGI (SK-MEL-2 melanoma) was > 100000 nM. The GI50 (SK-MEL-28 melanoma) was 1320 nM, the TGI (SK-MEL-28 melanoma) was > 100000 nM and the GI50 (CAKI-1 renal) was 46 nM. The TGI (CAKI-1 renal) was 2870 nM, the GI50 (SNB-19 CNS) was 5190 nM and the TGI (SNB-19 CNS) was > 100000 nM. For the same compound, the GI50 (EKVX NSCLC) was 16000 nM, the TGI (EKVX NSCLC) was > 100000 nM and the GI50 (CCRF-CEM leukemia) was < 10 nM. The TGI (CCRF-CEM leukemia) was > 50600 nM, the GI50 (IGROV1 ovarian) was 770 nM and the TGI (IGROV1 ovarian) was 38000 nM. For the same compound, the GI50 (SF-295 CNS) was < 25.2 nM, the GI50 (SW-620 colon) was < 10 nM and the TGI (SW-620 colon) was > 100000 nM. The GI50 (HOP-92 NSCLC) was < 17.9 nM, the TGI (HOP-92 NSCLC) was 45400 nM and the GI50 (HOP-62 NSCLC) was 79.1 nM. The TGI (HOP-62 NSCLC) was 34200 nM, the GI50 (A549 NSCLC) was < 16.1 nM and the TGI (A549 NSCLC) was > 68300 nM. For the same compound, the GI50 (DU-145 prostate) was 30500 nM, the TGI (DU-145 prostate) was > 100000 nM and the GI50 (786-0 renal) was 16.8 nM. For the same compound, the TGI (786-0 renal) was 18600 nM, the GI50 (ACHN renal) was < 16.9 nM and the GI50 (NCI-H23 lung) was < 10 nM. For the same compound, the TGI (NCI-H23 lung) was 18500 nM, the GI50 (KM12 colon) was < 10 nM and the GI50 (UACC-257 melanoma) was 40.1 nM. For the same compound, the TGI (UACC-257 melanoma) was 48000 nM, the GI50 (MDA-MB-231 breast) was < 26.9 nM and the TGI (MDA-MB-231 breast) was 1110 nM. For the same compound, the GI50 (HCC-2998 colon) was 37.6 nM, the TGI (HCC-2998 colon) was 12100 nM and the GI50 (MALME-3M melanoma) was 42.8 nM. For the same compound, the TGI (MALME-3M melanoma) was 61500 nM, the GI50 (HCT-116 colon) was < 10 nM and the TGI (HCT-116 colon) was 13900 nM. The GI50 (SF-268 CNS) was 45 nM, the TGI (SF-268 CNS) was > 47100 nM and the GI50 (NCI-H226 lung) was < 20.6 nM. The TGI (NCI-H226 lung) was 832 nM, the GI50 (OVCAR-5 ovarian) was < 10 nM and the TGI (OVCAR-5 ovarian) was 257 nM. The GI50 (HS 578T breast) was 31.1 nM, the TGI (HS 578T breast) was > 74900 nM and the GI50 (MDA-MB-435) was 16.1 nM. For the same compound, the TGI (MDA-MB-435) was 25100 nM, the GI50 (K-562 leukemia) was < 20.1 nM and the TGI (K-562 leukemia) was > 41600 nM. For the same compound, the GI50 (HCT-15 colon) was < 10 nM, the TGI (HCT-15 colon) was > 33000 nM and the GI50 (NCI-H460 lung) was < 10 nM. For the same compound, the TGI (NCI-H460 lung) was > 41400 nM, the GI50 (MCF7 breast) was < 10 nM and the TGI (MCF7 breast) was 20100 nM. For the same compound, the GI50 (OVCAR-3 ovarian) was < 10.9 nM, the TGI (OVCAR-3 ovarian) was 1070 nM and the GI50 (LOX IMVI melanoma) was < 10 nM. For the same compound, the TGI (LOX IMVI melanoma) was 11400 nM.
